The conditions of data set [1]: background, prior art, cited from earlier work.
For data set [2] the following is noted: bulk solution maintained at 5° C. to 15° C., such as 12° C.±3° C., for an extended period of time.

Where two headings read alike, the source gives them in different places.

Consider `O=P1(N(CCCl)CCCl)NCCCO1` (stereo not drawn) [anhydrous form, cyclophosphamide anhydrous], for which the stability as reported result in data set [1] is listed as “highly unstable”.

Turning to `O=P1(N(CCCl)CCCl)NCCCO1` (stereo not drawn) [cyclophosphamide, 2-[bis(2-chloroethyl)amino]tetrahydro-2H-1,3,2-oxazaphosphorine 2-oxide], the “degradation in bulk solution” value in data set [2] is “significant degradation”.

Take `O=P1(N(CCCl)CCCl)NCCCO1` (stereo not drawn) [monohydrate drug form, cyclophosphamide monohydrate]: the stability as reported result in data set [1] (monohydrate) is reported as “stable”.

(Values after US10307431B2, “Lyophilized cyclophosphamide composition and methods of preparation thereof” (priority 2017, dated 2019).)
